The values that follow come from ChEMBL document CHEMBL1136414, “Structure-activity relationship of linear peptide Bu-His-DPhe-Arg-Trp-Gly-NH(2) at the human melanocortin-1 and -4 receptors: histidine substitution” (Bioorg Med Chem Lett, 2003).

Molecules are shown by their SMILES.

In experiment [1] the target is T1, Melanocortin receptor 4 (Homo sapiens, UniProt P32245). Kind of experiment: Agonist activity against human melanocortin receptor hMC4R. It counts as functional.
Experiment [2] deals with T2, Melanocyte-stimulating hormone receptor (Homo sapiens, UniProt Q01726). Kind of experiment: Agonist activity against human melanocortin receptor hMC1R. It counts as functional.
Target sequence in this assay (Q01726 whole entry): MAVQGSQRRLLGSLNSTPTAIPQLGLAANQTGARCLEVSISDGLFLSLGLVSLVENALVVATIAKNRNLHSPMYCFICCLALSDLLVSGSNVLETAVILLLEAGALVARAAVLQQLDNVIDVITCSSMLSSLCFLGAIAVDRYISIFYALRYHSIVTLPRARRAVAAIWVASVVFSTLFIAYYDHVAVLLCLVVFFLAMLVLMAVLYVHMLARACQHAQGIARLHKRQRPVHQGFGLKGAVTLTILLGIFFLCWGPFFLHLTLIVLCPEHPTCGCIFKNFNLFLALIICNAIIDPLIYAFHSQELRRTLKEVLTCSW
Experiment [3] concerns the target T2, Melanocyte-stimulating hormone receptor. As to the kind of experiment: Binding affinity towards human melanocortin receptor hMC1R by using radioligand NDP-MSH.
Target sequence in this assay (Q01726 whole entry): as above
The target of experiment [4] is T1, Melanocortin receptor 4. As to the kind of experiment: Binding affinity towards human melanocortin receptor hMC4R by using radioligand NDP-MSH; not determined.
Experiment [5] deals with T1, Melanocortin receptor 4. Kind of experiment: Binding affinity towards human melanocortin receptor hMC4R by using radioligand NDP-MSH.
Experiment [6] concerns the target T2, Melanocyte-stimulating hormone receptor. As to the kind of experiment: (§1) Agonist activity against human melanocortin receptor hMC1R at 50% maximum cAMP accumulation. It counts as functional. For orientation: Changes in cAMP serve as a functional read-out for many G protein-coupled receptors.
Target sequence in this assay (Q01726 whole entry): as above
In experiment [7] the target is T3, Melanocortin receptor 5 (Homo sapiens, UniProt P33032). Kind of experiment: Agonist activity against human melanocortin receptor hMC5R measured as percent cAMP accumulation at the concentration of 50 uM. It counts as functional.
In experiment [8] the target is T2, Melanocyte-stimulating hormone receptor. As to the kind of experiment: Percent inhibition of human melanocortin receptor hMC1R at the concentration of 50 uM.
Target sequence in this assay (Q01726 whole entry, looked up): as the sequence (Q01726 whole entry) above
Experiment [9] addresses T4, Melanocortin receptor 3 (Homo sapiens, UniProt P41968). As to the kind of experiment: Agonist activity against human melanocortin receptor hMC3R measured as percent cAMP accumulation at the concentration of 50 uM. It counts as functional.
The target of experiment [10] is T2, Melanocyte-stimulating hormone receptor. The description is as §1. The experiment is classed as functional. This is another data set of the same source.
Target sequence in this assay (Q01726 whole entry, looked up): as the sequence (Q01726 whole entry) above
Experiment [11] concerns the target T1, Melanocortin receptor 4. Kind of experiment: Percent inhibition of human melanocortin receptor hMC4R at the concentration of 50 uM.
Experiment [12] addresses T3, Melanocortin receptor 5. Kind of experiment: Binding affinity towards human melanocortin receptor hMC5R by using radioligand NDP-MSH.
In experiment [13] the target is T4, Melanocortin receptor 3. Kind of experiment: Binding affinity towards human melanocortin receptor hMC3R by using radioligand NDP-MSH.

T4 sequence (P41968 whole entry): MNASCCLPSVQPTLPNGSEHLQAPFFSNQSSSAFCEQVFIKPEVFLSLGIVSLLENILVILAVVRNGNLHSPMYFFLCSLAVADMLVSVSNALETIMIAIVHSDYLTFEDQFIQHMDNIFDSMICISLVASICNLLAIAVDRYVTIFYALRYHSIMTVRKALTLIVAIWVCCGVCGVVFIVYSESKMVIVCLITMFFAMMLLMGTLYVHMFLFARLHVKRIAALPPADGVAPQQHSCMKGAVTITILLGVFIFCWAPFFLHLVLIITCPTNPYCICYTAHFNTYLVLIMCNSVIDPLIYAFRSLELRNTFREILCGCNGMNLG
T3 sequence (P33032 whole entry): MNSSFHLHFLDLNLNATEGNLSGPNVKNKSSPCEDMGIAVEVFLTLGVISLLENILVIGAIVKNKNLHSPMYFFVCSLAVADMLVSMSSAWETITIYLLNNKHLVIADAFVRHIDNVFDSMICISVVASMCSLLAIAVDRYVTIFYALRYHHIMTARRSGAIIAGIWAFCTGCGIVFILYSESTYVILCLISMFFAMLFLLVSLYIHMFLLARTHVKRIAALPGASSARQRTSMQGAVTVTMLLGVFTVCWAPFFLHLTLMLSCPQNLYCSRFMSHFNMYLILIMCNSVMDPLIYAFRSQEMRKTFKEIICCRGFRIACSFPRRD
T1 sequence (P32245 whole entry): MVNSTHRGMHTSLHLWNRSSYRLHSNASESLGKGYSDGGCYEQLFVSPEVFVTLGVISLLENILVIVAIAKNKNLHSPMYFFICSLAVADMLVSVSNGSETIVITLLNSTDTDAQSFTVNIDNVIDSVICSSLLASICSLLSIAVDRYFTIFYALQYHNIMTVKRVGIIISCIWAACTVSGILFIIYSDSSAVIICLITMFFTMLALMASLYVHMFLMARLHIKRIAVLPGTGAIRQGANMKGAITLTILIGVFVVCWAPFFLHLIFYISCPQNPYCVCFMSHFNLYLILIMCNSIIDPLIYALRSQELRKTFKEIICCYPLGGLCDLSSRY

`CCCCC(=O)NC1(C(=O)NC(Cc2ccccc2)C(=O)N[C@@H](CCCNC(=N)N)C(=O)N[C@@H](Cc2c[nH]c3ccccc23)C(=O)NCC(N)=O)CCc2c(cccc2OC(C)C)C1` (single isomer, unassigned): the EC50 (in general, the concentration needed to bring the measured effect to its halfway point) on Melanocortin receptor 4 [1] was found to be 130 nM; in experiment [2], 680 nM.
As for `CCCCC(=O)NC1(C(=O)N[C@H](Cc2ccccc2)C(=O)N[C@@H](CCCNC(=N)N)C(=O)N[C@@H](Cc2c[nH]c3ccccc23)C(=O)NCC(N)=O)CCc2c(Br)cccc2C1` (single isomer, unassigned; isomer 2), the 50% inhibitory concentration (IC50) (usually the concentration that inhibits the measured activity by half) in experiment [3] stood at 5100 nM; at Melanocortin receptor 4 [4] it was 105 nM. Also, the EC50 at Melanocortin receptor 4 [1] is 35 nM.
Consider `CCCCC(=O)NC1(C(=O)N[C@H](Cc2ccccc2)C(=O)N[C@@H](CCCNC(=N)N)C(=O)N[C@@H](Cc2c[nH]c3ccccc23)C(=O)NCC(N)=O)CCc2c(Cl)cccc2C1` (single isomer, unassigned; isomer 2), for which the EC50 on Melanocortin receptor 4 [1] is 130 nM; in experiment [2], 890 nM.
Regarding `CCCCC(=O)NC1(C(=O)N[C@H](Cc2ccccc2)C(=O)N[C@@H](CCCNC(=N)N)C(=O)N[C@@H](Cc2c[nH]c3ccccc23)C(=O)NCC(N)=O)CCc2c(cccc2N(C)C)C1` (single isomer, unassigned; isomer 1), the half-inhibitory concentration (IC50) at Melanocortin receptor 4 [5] worked out at 25 nM; in experiment [3], 25500 nM. Further, the 50% effective concentration (EC50) was found to be 940 nM in experiment [6], 2 nM on Melanocortin receptor 4 [1] and 940 nM in experiment [2].
For `CCCCC(=O)NC1(C(=O)NC(Cc2ccccc2)C(=O)N[C@@H](CCCNC(=N)N)C(=O)N[C@@H](Cc2c[nH]c3ccccc23)C(=O)NCC(N)=O)CCc2c(cccc2OC)C1` (single isomer, unassigned), the EC50 at Melanocortin receptor 4 [1] is 90 nM; in [2], 1480 nM.
As to `CCCCC(=O)N[C@]1(C(=O)N[C@H](Cc2ccccc2)C(=O)N[C@@H](CCCN=C(N)N)C(=O)N[C@@H](Cc2c[nH]c3ccccc23)C(=O)NCC(N)=O)CCc2ccccc2C1` (stereo in doubt; form 2), the EC50 stood at 1000 nM on Melanocortin receptor 4 [1] and 1950 nM in experiment [2].
The matching figures for `CCCCC(=O)NC1(C(=O)NC(Cc2ccccc2)C(=O)N[C@@H](CCCNC(=N)N)C(=O)N[C@@H](Cc2c[nH]c3ccccc23)C(=O)NCC(N)=O)CCc2c(cccc2C(C)C)C1` (single isomer, unassigned): 13 nM and 295 nM.
The matching figures for `CCCCC(=O)NC1(C(=O)NC(Cc2ccccc2)C(=O)N[C@@H](CCCNC(=N)N)C(=O)N[C@@H](Cc2c[nH]c3ccccc23)C(=O)NCC(N)=O)CCc2c(CC)cccc2C1` (single isomer, unassigned): 24 nM and 195 nM.
The matching figures for `CCCC(=O)N[C@@H](C)C(=O)NC(Cc1ccccc1)C(=O)N[C@@H](CCCN=C(N)N)C(=O)N[C@@H](Cc1c[nH]c2ccccc12)C(=O)NCC(N)=O` (single isomer, unassigned): 180 nM and 230 nM.
As for `CCCCC(=O)NC1(C(=O)NC(Cc2ccccc2)C(=O)N[C@@H](CCCN=C(N)N)C(=O)N[C@@H](Cc2c[nH]c3ccccc23)C(=O)NCC(N)=O)CCc2c(Br)cccc2C1` (single isomer, unassigned), the Accumulation stood at 0% on Melanocortin receptor 5 [7], 0% on Melanocortin receptor 3 [9] and 75% in experiment [10]. The IC50 came out at 200 nM on Melanocortin receptor 4 [5] and 4900 nM in [3]. The compound also registered an EC50 at Melanocortin receptor 4 [1] of 33 nM. In experiment [8], the inhibition (usually how much of the control response was suppressed) worked out at 75%.
On to `CCCCC(=O)NC1(C(=O)NC(Cc2ccccc2)C(=O)N[C@@H](CCCNC(=N)N)C(=O)N[C@@H](Cc2c[nH]c3ccccc23)C(=O)NCC(N)=O)CCc2c(cccc2OCC)C1` (single isomer, unassigned), for which the results for the EC50 (on Melanocortin receptor 4 [1]; in experiment [2]) were 120 nM and 990 nM, respectively.
`CCCCC(=O)NC1(C(=O)NC(Cc2ccccc2)C(=O)N[C@@H](CCCN=C(N)N)C(=O)N[C@@H](Cc2c[nH]c3ccccc23)C(=O)NCC(N)=O)CCc2cc(Br)ccc2C1` (single isomer, unassigned; form 1) [listing 1 of 2 here] came in with an inhibition at Melanocortin receptor 4 [11] of 60%.
Still for that read-out and setting: for `CCCCC(=O)NC1(C(=O)NC(Cc2ccccc2)C(=O)N[C@@H](CCCN=C(N)N)C(=O)N[C@@H](Cc2c[nH]c3ccccc23)C(=O)NCC(N)=O)CCc2cc(Br)ccc2C1` (single isomer, unassigned; form 2) [listing 1 of 2 here] the value was 50%.
On to `CCCCC(=O)NC1(C(=O)NC(Cc2ccccc2)C(=O)N[C@@H](CCCN=C(N)N)C(=O)N[C@@H](Cc2c[nH]c3ccccc23)C(=O)NCC(N)=O)CCc2ccc(Br)cc2C1` (single isomer, unassigned), for which the inhibition is 40% against Melanocortin receptor 4 [11] and 0% in [8].
In the case of `CCCCC(=O)NC1(C(=O)NC(Cc2ccccc2)C(=O)N[C@@H](CCCNC(=N)N)C(=O)N[C@@H](Cc2c[nH]c3ccccc23)C(=O)NCC(N)=O)CCc2c(Cl)cccc2C1` (single isomer, unassigned), the EC50 is 600 nM on Melanocortin receptor 4 [1] and 1400 nM in experiment [2].
For `CCCCC(=O)NC1(C(=O)NC(Cc2ccccc2)C(=O)N[C@@H](CCCNC(=N)N)C(=O)N[C@@H](Cc2c[nH]c3ccccc23)C(=O)NCC(N)=O)CCc2c(C)cccc2C1` (single isomer, unassigned), in that order: 35 nM and 1220 nM.
For the compound `CCCCC(=O)NC1(C(=O)N[C@H](Cc2ccccc2)C(=O)N[C@@H](CCCN=C(N)N)C(=O)N[C@@H](Cc2c[nH]c3ccccc23)C(=O)NCC(N)=O)CCc2c(cccc2N(C)C)C1` (single isomer, unassigned; isomer 2), the Accumulation at Melanocortin receptor 5 [7] was determined as 24%; at Melanocortin receptor 3 [9], 0%.
Consider `CCCC(=O)N[C@@]1(C(=O)N[C@H](Cc2ccccc2)C(=O)N[C@@H](CCCN=C(N)N)C(=O)N[C@@H](Cc2c[nH]c3ccccc23)C(=O)NCC(N)=O)CCc2ccccc2C1` (stereo in doubt; form 2), for which the EC50 turned out to be 2940 nM on Melanocortin receptor 4 [1] and 5640 nM in experiment [2].
Take `CCCCC(=O)NC1(C(=O)NC(Cc2ccccc2)C(=O)N[C@@H](CCCN=C(N)N)C(=O)N[C@@H](Cc2c[nH]c3ccccc23)C(=O)NCC(N)=O)CCc2cccc(Br)c2C1` (single isomer, unassigned): the inhibition against Melanocortin receptor 4 [11] was 0%. In [2], the EC50 is 1710 nM.
For the compound `CCCCC(=O)NC1(C(=O)N[C@H](Cc2ccccc2)C(=O)N[C@@H](CCCNC(=N)N)C(=O)N[C@@H](Cc2c[nH]c3ccccc23)C(=O)NCC(N)=O)CCc2c(cccc2N(C)C)C1` (single isomer, unassigned; isomer 2), the values for the IC50 (at Melanocortin receptor 4 [5]; in experiment [3]) were 150 nM and 21700 nM, respectively. Moreover, the EC50 in experiment [6] was 1850 nM; at Melanocortin receptor 4 [1] it was 16 nM; in experiment [2], 1850 nM.
For `CCCC(=O)N[C@@H](Cc1cnc[nH]1)C(=O)N[C@H](Cc1ccccc1)C(=O)N[C@@H](CCCNC(=N)N)C(=O)N[C@@H](Cc1c[nH]c2ccccc12)C(=O)NCC(N)=O`, the IC50 came to 150 nM on Melanocortin receptor 4 [5], 13300 nM at Melanocortin receptor 5 [12], 580 nM in experiment [3] and 4000 nM at Melanocortin receptor 3 [13]. Also, the EC50 in [6] came out at 10 nM; on Melanocortin receptor 4 [1], 20 nM; in [2], 10 nM.
In experiment [2], `CCCCC(=O)NC1(C(=O)NC(Cc2ccccc2)C(=O)N[C@@H](CCCN=C(N)N)C(=O)N[C@@H](Cc2c[nH]c3ccccc23)C(=O)NCC(N)=O)CCc2cc(Br)ccc2C1` (single isomer, unassigned; form 1) [listing 2 of 2 here] gave an EC50 of 3380 nM.
Regarding `CCCCC(=O)N[C@]1(C(=O)N[C@H](Cc2ccccc2)C(=O)N[C@@H](CCCN=C(N)N)C(=O)N[C@@H](Cc2c[nH]c3ccccc23)C(=O)NCC(N)=O)CCc2ccccc2C1` (stereo in doubt; form 1), the values for the EC50 (on Melanocortin receptor 4 [1]; in experiment [2]) were 45 nM and 830 nM, respectively.
Compound `CCCCC(=O)NC1(C(=O)NC(Cc2ccccc2)C(=O)N[C@@H](CCCN=C(N)N)C(=O)N[C@@H](Cc2c[nH]c3ccccc23)C(=O)NCC(N)=O)CCc2cc(Br)ccc2C1` (single isomer, unassigned; form 2) [listing 2 of 2 here] had an EC50 in [2] of 4630 nM.
Regarding `CCCCC(=O)NC1(C(=O)N[C@H](Cc2ccccc2)C(=O)N[C@@H](CCCN=C(N)N)C(=O)N[C@@H](Cc2c[nH]c3ccccc23)C(=O)NCC(N)=O)CCc2c(Br)cccc2C1` (single isomer, unassigned; isomer 2), the Accumulation on Melanocortin receptor 5 [7] was determined as 32%; at Melanocortin receptor 3 [9], 0%. The inhibition in [8] came to 50%.
In the case of `CCCCC(=O)NC1(C(=O)N[C@H](Cc2ccccc2)C(=O)N[C@@H](CCCN=C(N)N)C(=O)N[C@@H](Cc2c[nH]c3ccccc23)C(=O)NCC(N)=O)CCc2cccc(Br)c2C1` (single isomer, unassigned; isomer 2), the inhibition on Melanocortin receptor 4 [11] came out at 0%. In experiment [2], the midpoint of the response, the EC50, lay at 2910 nM.
As to `CCCCC(=O)NC1(C(=O)N[C@H](Cc2ccccc2)C(=O)N[C@@H](CCCN=C(N)N)C(=O)N[C@@H](Cc2c[nH]c3ccccc23)C(=O)NCC(N)=O)CCc2c(cccc2N(C)C)C1` (single isomer, unassigned; isomer 1), the Accumulation at Melanocortin receptor 5 [7] and at Melanocortin receptor 3 [9] was 0% throughout.
Regarding `CCCC(=O)N[C@@]1(C(=O)N[C@H](Cc2ccccc2)C(=O)N[C@@H](CCCN=C(N)N)C(=O)N[C@@H](Cc2c[nH]c3ccccc23)C(=O)NCC(N)=O)CCc2ccccc2C1` (stereo in doubt; form 1), the values for the EC50 (at Melanocortin receptor 4 [1]; in [2]) were 290 nM and 4380 nM, respectively.
With `CCCC(=O)N[C@@H](Cc1c[nH]cn1)C(=O)N[C@H](Cc1ccccc1)C(=O)N[C@@H](CCCN=C(N)N)C(=O)N[C@@H](Cc1c[nH]c2ccccc12)C(=O)NCC(N)=O`, the Accumulation at Melanocortin receptor 5 [7] and on Melanocortin receptor 3 [9] was 0% each time.
